Assay results taken from paper PMC7181131, “N-Pyrazinoyl Substituted Amino Acids as Potential Antimycobacterial Agents—the Synthesis and Biological Evaluation of Enantiomers” (Molecules, 2020).
In brackets after ≈: the same amount, converted by molar mass. Read-outs that look alike come from different tables or passages of the source.

Experiments:
[1] = tested on: Trichophyton interdigitale CCM 8377 (ATCC 9533); assay: Antifungal microdilution broth method, TI; assay type: cell-based; settings: 48 h, read-out: MIC TI
[2] = tested on: Mtb H37Ra ITM-M006710 (ATCC 9431); assay: Microplate Alamar Blue Assay (MABA) microdilution, Mtb H37Ra; assay type: cell-based, Mycobacterium tuberculosis; settings: Mycobacterium tuberculosis
[3] = tested on: Lichtheimia corymbifera CCM 8077; assay: Antifungal microdilution broth method, LC; assay type: cell-based; settings: CCM8077, 48 h, read-out: MIC LC
[4] = tested on: M. avium ssp. avium CNCTC My 80/72 (ATCC 15769); assay: Antimycobacterial pre-screening, microdilution broth, M. avium; assay type: cell-based; settings: Mycobacterium avium, ATCC15769; Middlebrook 7H9 broth of declared pH 6.6
[5] = tested on: Candida krusei CCM 8271 (ATCC 6258); assay: Antifungal microdilution broth method, CK; assay type: cell-based; settings: Pichia kudriavzevii, 24 h, read-out: MIC CK
[6] = tested on: Staphylococcus epidermidis CCM 4418 (ATCC 12228); assay: Antibacterial microdilution broth method, SE; assay type: cell-based; settings: 24 h, read-out: MIC SE
[7] = tested on: Aspergillus fumigatus ATCC 204305; assay: Antifungal microdilution broth method, AF; assay type: cell-based; settings: ATCC204305, 48 h, read-out: MIC AF
[8] = tested on: Klebsiella pneumoniae CCM 4415 (ATCC 10031); assay: Antibacterial microdilution broth method, KP; settings: read after 24 h of incubation
[9] = tested on: M. smegmatis DSM 43465 (ATCC 607); assay: Microplate Alamar Blue Assay (MABA) microdilution, M. smegmatis; assay type: cell-based, Mycobacterium smegmatis; settings: Mycolicibacterium smegmatis
[10] = tested on: Candida albicans CCM 8320 (ATCC 24433); assay: Antifungal microdilution broth method, CA; assay type: cell-based; settings: 24 h, read-out: MIC CA
[11] = tested on: Candida tropicalis CCM 8264 (ATCC 750); assay: Antifungal microdilution broth method, CT; assay type: cell-based; settings: 24 h, read-out: MIC CT
[12] = tested on: Aspergillus flavus CCM 8363; assay: Antifungal microdilution broth method, AFla; assay type: cell-based; settings: CCM8363, read after 48 h (filamentous fungi), read-out: MIC AFla
[13] = tested on: Mycobacterium tuberculosis H37Rv CNCTC My 331/88 (ATCC 27294); assay: Antimycobacterial pre-screening, microdilution broth, Mtb H37Rv; assay type: cell-based; settings: Middlebrook 7H9 broth of declared pH 6.6
[14] = tested on: Candida parapsilosis CCM 8260 (ATCC 22019); assay: Antifungal microdilution broth method, CP; assay type: cell-based; settings: Lodderomyces parapsilosis, 24 h, read-out: MIC CP
[15] = tested on: M. kansasii CNCTC My 235/80 (ATCC 12478); assay: Antimycobacterial pre-screening, microdilution broth, M. kansasii; assay type: cell-based; settings: Mycobacterium kansasii, ATCC12478; Middlebrook 7H9 broth of declared pH 6.6
[16] = tested on: Mycobacterium aurum DSM 43999 (ATCC 23366); assay: Microplate Alamar Blue Assay (MABA) microdilution, M. aurum; assay type: cell-based; settings: Mycolicibacterium aurum
[17] = pH 6.6, read-out: MIC Mtb H37Ra
[18] = pH 6, calculated from µg/mL, read-out: MIC Mtb H37Ra
[19] = pH 6, read-out: MIC M. smegmatis µg/mL
[20] = pH 6.6, read-out: MIC M. smegmatis
[21] = pH 6, read-out: MIC M. aurum µg/mL

Structure (SMILES)	MIC [1] [µM]	MIC ([2]; pH 6) [µg/mL]	MIC ([2]; pH 6, read-out: MIC Mtb H37Ra) [µg/mL]	MIC [2, 17] [µg/mL]	MIC [2, 18] [µM]	MIC [3] [µM]	MIC [4] [µg/mL]	MIC [5] [µM]	MIC [6] [µM]	MIC [7] [µM]	MIC KP [8] [µM]	MIC [9, 19] [µg/mL]	MIC [9, 20] [µg/mL]	MIC [10] [µM]	MIC [11] [µM]	MIC [12] [µM]	MIC [13] [µg/mL]	MIC [14] [µM]	MIC [15] [µg/mL]	MIC [16, 21] [µg/mL]	other results
CCOC(=O)[C@@H](NC(=O)c1cnccn1)C(C)C (racemic) [PC-DL-Val-Et, ethyl (pyrazine-2-carbonyl)valinate]	> 500	≥ 125	≥ 125	≥ 500	≥ 497	> 500	> 100	> 500	> 500	> 500	> 500	≥ 125	250 (≈ 995 µM)	> 500	> 500	> 500	> 100	> 500	> 100	≥ 125	MIC ([16]; pH 6.6, read-out: MIC M. aurum): ≥ 500 µg/mL
C[C@@H](NC(=O)c1cnccn1)C(=O)O [PC-D-Ala, (pyrazine-2-carbonyl)-D-alanine]	> 500	≥ 125	≥ 125	≥ 500	≥ 640	> 500	> 100	> 500	> 500	> 500	> 500	≥ 125	≥ 500	> 500	> 500	> 500	> 100	> 500	> 100	62.5 (≈ 320 µM)	MIC ([16]; pH 6.6, read-out: MIC M. aurum): ≥ 500 µg/mL
COC(=O)[C@@H](CC(C)C)NC(=O)c1cnccn1 [PC-D-Leu-Me, methyl (pyrazine-2-carbonyl)-D-leucinate]	> 500	≥ 125	≥ 125	≥ 500	≥ 497	> 500	> 100	> 500	> 500	> 500	> 500	≥ 125	250 (≈ 995 µM)	> 500	> 500	> 500	> 100	> 500	> 100	≥ 125	MIC ([16]; pH 6.6, read-out: MIC M. aurum): ≥ 500 µg/mL
O=C(N[C@H](CO)C(=O)O)c1cnccn1 [PC-D-Ser, (pyrazine-2-carbonyl)-D-serine]	500 (≈ 106 µg/mL)	≥ 250	≥ 250	≥ 500	≥ 1180	> 500	> 100	> 500	> 500	> 500	> 500	125 (≈ 592 µM)	≥ 500	> 500	> 500	> 500	> 100	> 500	> 100	62.5 (≈ 296 µM)	MIC ([16]; pH 6.6, read-out: MIC M. aurum): ≥ 500 µg/mL
O=C(O)CNC(=O)c1cnccn1 [PC-Gly, (pyrazine-2-carbonyl)glycine]	> 500	≥ 125	≥ 125	≥ 500	≥ 690	> 500	> 100	500 (≈ 90.6 µg/mL)	> 500	> 500	> 500	≥ 125	≥ 500	> 500	> 500	> 500	> 100	> 500	> 100	≥ 125	MIC ([16]; pH 6.6, read-out: MIC M. aurum): ≥ 500 µg/mL
COC(=O)[C@H](CC(C)C)NC(=O)c1cnccn1 [PC-L-Leu-Me, methyl (pyrazine-2-carbonyl)-L-leucinate]	> 500	≥ 125	≥ 125	250	≥ 497	> 500	> 100	> 500	500 (≈ 126 µg/mL)	> 500	> 500	≥ 125	250 (≈ 995 µM)	> 500	> 500	> 500	100 (≈ 398 µM)	> 500	> 100	≥ 125	MIC ([16]; pH 6.6, read-out: MIC M. aurum): ≥ 500 µg/mL
